{
  "source": "patent US8207136B2",
  "about": "“Nucleoside compounds and methods of use thereof” (The Board of Trustees of the University of Illinois, priority 2005, dated 2012)",
  "key": {"P-TEFb (Cdk9/Cyclin T1)": {"target": "T1, P-TEFb (Cdk9/Cyclin T1) (Homo sapiens, UniProt P50750)", "T1 construct": "gift from Dr. Nekhai (Howard University)", "T1 sequence (P50750 whole entry, species assumed)": "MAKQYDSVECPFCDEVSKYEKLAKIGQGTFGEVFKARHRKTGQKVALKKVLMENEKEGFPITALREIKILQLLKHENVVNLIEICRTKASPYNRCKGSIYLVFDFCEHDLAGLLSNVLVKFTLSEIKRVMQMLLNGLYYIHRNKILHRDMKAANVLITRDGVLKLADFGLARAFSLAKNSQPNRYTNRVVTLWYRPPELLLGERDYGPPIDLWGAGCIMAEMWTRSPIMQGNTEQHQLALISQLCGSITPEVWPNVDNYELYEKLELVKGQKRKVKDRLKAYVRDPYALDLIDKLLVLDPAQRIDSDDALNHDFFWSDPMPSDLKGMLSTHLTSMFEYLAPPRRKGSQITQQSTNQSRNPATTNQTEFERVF", "T1 sequence (O60563 whole entry partner, species assumed)": "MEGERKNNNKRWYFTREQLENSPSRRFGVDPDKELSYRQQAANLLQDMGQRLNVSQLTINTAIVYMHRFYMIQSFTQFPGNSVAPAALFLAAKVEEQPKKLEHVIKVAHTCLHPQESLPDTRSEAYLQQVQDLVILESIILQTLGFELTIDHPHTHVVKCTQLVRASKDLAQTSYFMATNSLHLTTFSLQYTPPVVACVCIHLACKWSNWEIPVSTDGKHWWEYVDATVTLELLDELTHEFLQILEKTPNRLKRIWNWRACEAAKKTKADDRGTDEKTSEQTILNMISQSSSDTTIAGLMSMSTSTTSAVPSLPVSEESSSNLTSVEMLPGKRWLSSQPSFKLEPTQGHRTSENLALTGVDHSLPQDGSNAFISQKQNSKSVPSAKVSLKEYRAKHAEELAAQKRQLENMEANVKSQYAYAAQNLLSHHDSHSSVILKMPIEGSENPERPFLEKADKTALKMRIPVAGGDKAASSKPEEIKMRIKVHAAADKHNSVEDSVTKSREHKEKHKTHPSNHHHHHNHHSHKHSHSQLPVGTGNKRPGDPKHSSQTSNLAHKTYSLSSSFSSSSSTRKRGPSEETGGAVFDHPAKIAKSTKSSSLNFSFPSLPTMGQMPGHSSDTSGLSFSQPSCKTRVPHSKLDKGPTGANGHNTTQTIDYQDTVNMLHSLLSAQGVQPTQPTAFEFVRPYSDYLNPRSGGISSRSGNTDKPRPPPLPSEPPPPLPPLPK", "assay": "P-TEFb kinase assay with p53 as substrate", "type": "biochemical", "details": "different concentrations, 30° C., 30 min", "procedure": "For P-TEFb kinase assays with p53 as a substrate, purified p53 protein (Protein One) was used. Twenty-five nanograms of p53 protein along with [γ^32P]ATP was used in reactions either in the presence or absence of P-TEFb, with or without the addition of ARC. The reaction was carried out at 30° C. for 30 min. The samples were resolved on an SDS-PAGE and transferred on to a PVDF membrane and exposed to X-ray film to detect phosphorylation of p53.\nIn order to evaluate this activity, an in vitro kinase assay was performed with purified p53 protein and P-TEFb in the presence of different concentrations of ARC."}, "HUVECs": {"test_system": "HUVECs", "assay": "Motility assay with VEGF as chemoattractant", "type": "cell-based", "details": "Homo sapiens, HUVEC; 24 hours pretreatment, average from two trials; read-out: IC50, cell motility", "procedure": "Different angiogenesis assays such as cord formation assay, motility assay and proliferation inhibition assay were performed at the developmental therapeutics program (DTP) branch of NCI (NCI/DTP) as described. HUVECs were used for all the assays. Taxol and TNP-470 were used as positive control for the assays.\nFor motility assay, HUVECs were pretreated for 24 hours with different concentrations ARC and used in the assay with vascular endothelial growth factor (VEGF) as a chemoattractant."}, "[1]": {"assay": "Preliminary toxicity studies (NCI/DTP) in mice", "type": "in vivo", "details": "as high as 200 mg/Kg, 5-day period, B6D2FI mice", "source_text": "Similarly, p21 may also act in an anti-apoptotic fashion by inducing cell-cycle arrest or by inhibiting pro-apoptotic molecules such as procaspase-3 and apoptosis signal-regulating kinasel (ASK1). […] The fact that ARC represses both survivin and p21 makes a strong case for consideration of ARC as a potential anti-tumor agent. This is further supported by the observation that ARC was >10-fold more efficient in inducing apoptosis than the other nucleoside analog DRB (FIG. 5F). This is especially intriguing because, as shown herein, ARC and DRB repress global transcription to similar extent (FIG. 2A). […] Preliminary toxicity studies from NCI/DTP indicate that concentrations as high as 200 mg/Kg were non-toxic to B6D2FI mice during a 5-day period."}, "[2]": {"test_system": "MCF-7 breast cancer cells", "assay": "Apoptosis assays in MCF-7 breast cancer cells", "type": "cell-based, human", "procedure": "Immunoblotting was performed as described with antibodies specific for p53 (sc-126 HRP; Santa Cruz), hdm2 (sc-965; Santa Cruz), p21 (556431; BD Pharmingen), Sp1 (sc-59; Santa Cruz), survivin (sc-10811; Santa Cruz), phospho RNA polymerase II (4735; Cell Signaling), total RNA polymerase II (8WG16; a gift from Dr. Schlegel, University of Illinois at Chicago), α-tubulin (T9026; Sigma), cleaved caspase-3 (9664; Cell Signaling), caspase-9 (9502; Cell Signaling) and β-actin (A5441; Sigma) antibodies.\nApoptosis was detected either by DAPI (4′,6-diamidino-2-phenylindole) staining or by Flow Cytometry after PI (Propidium Iodide) staining. For DAPI staining, all treatments (DMSO or ARC) were done in triplicates in 6-well plates and cells were stained with DAPI and visualized by fluorescent microscopy. Four random fields for each sample were photographed and at least 500 cells per field were counted to estimate apoptosis. The data is represented as mean±Standard deviation (sd).\nIn order to further characterize ARC with respect to its apoptotic potential, cell lines derived from cancers of different origin were utilized. MCF-7 breast cancer cells underwent apoptosis (around 45% and 55%, respectively, with 10 and 20 μM of ARC) after 24 hours of treatment (FIGS. 5A and 5B). […] To evaluate the extent to which ARC-mediated apoptosis is p53-dependent, an MCF-7 cell line that stably expresses a short hairpin RNA (shRNA) targeting p53 (MCF-7-p53si) was used."}, "p53": {"test_system": "p53", "assay": "Gel shift assay with nuclear extracts and p53 consensus probe", "type": "cell-based, human", "procedure": "Either purified p53 protein or nuclear extracts were used in the gel shift assays. For preparation of nuclear extracts, cells treated either with DMSO or different agents (doxorubicin, ARC and actinomycin D) were harvested 24 hours later and lysed in hypotonic buffer (10 mM HEPES pH 7.9, 1.5 mM MgCl2, 10 mM KCl, 0.2 mM PMSF, 0.5 mM DTT, 1 mM Na3VO4, 1 mM NaF, 1 mM Aprotinin and 1 mM Leupeptin), nuclei pelleted and treated with high-salt buffer (20 mM HEPES pH 7.9, 20% (v/v) glycerol, 1.5 mM MgCl2, 0.5 M KCl, 0.2 mM EDTA, 0.2 mM PMSF, 0.5 mM DTT, 1 mM Na3VO4, 1 mM NaF, 1 mM Aprotinin and 1 mM Leupeptin). Nuclear extracts (10 μg) or purified p53 protein (100 ng) were incubated with 0.5 ng of p53 consensus double-stranded oligos (5′-TACAGAACATGTCTAAGCATGCTGGGGACT-3′; Santa Cruz Biotechnology) that were labeled with [γ^32P]ATP. As a control, anti-p53 antibody (PAb421, EMD Biosciences) was used to supershift the p53/DNA complex. The reaction mixtures were resolved on a 4% acrylamide DNA-retardation gel, dried and exposed to X-ray film in the presence of intensifying screen.\nAlthough the effects of ARC were p53-independent, ARC did affect some properties of p53. […] This is in contrast to actinomycin D, which is known to enhance the DNA binding ability of p53 [22]. […] To determine if ARC retains p53 in the cytoplasm, which may lead to decreased binding in the gel shift assays, p53 levels in nuclear lysates were examined."}},
  "note": "pIC50: −log10 of the molar value.",
  "data": [
    {"smiles": "NNc1c(C(N)=O)c2c(N)ncnc2n1[C@@H]1O[C@H](CO)[C@@H](O)[C@H]1O", "note": "[ARC, 4-amino-6-hydrazino-7-beta-D-ribofuranosyl-7H-pyrrolo[2,3-d]-pyrimidine-5-carboxamide]", "values": [
      {"measurement": "phosphorylation of p53 by P-TEFb", "setting": "P-TEFb (Cdk9/Cyclin T1)", "result": "decreased in a dose-dependent manner"},
      {"measurement": "pIC50", "setting": "HUVECs", "result": "~6.08"},
      {"measurement": "toxicity", "setting": "[1]", "result": "non-toxic"},
      {"measurement": "apoptosis (DAPI staining)", "setting": "[2]; 10 μM, 24 hours", "result": "around 45%"},
      {"measurement": "apoptosis (DAPI staining)", "setting": "[2]; 20 μM, 24 hours", "result": "~55", "unit": "%"},
      {"measurement": "cleavage of caspase-9", "setting": "[2]; MCF-7, 24 hours", "result": "cleavage of caspase-9 upon ARC treatment was observed"},
      {"measurement": "cleavage of caspase-9", "setting": "[2]; MCF-7-p53si cells (shRNA targeting p53), 24 hours", "result": "Cleavage of caspase-9 was detected"},
      {"measurement": "DNA binding ability of p53, agent alone", "setting": "p53; MCF-7 nuclear extracts", "result": "did not influence the DNA binding ability of p53"},
      {"measurement": "doxorubicin-induced DNA binding ability of p53", "setting": "p53; nuclear extracts from HCT-116 and MCF-7 cells, with doxorubicin", "result": "inhibited the doxorubicin-induced DNA binding ability of p53"}
    ]}
  ]
}
